Reference: PubChem BioAssay AID1259407 (Chemical Carcinogenesis Research Information System (CCRIS), 2018)
Activity calls are given as the source filed them. The rule behind the calls is not given here.

System: CCRIS mutagenicity, Ames/micronucleus/aberration tests
Assay: CCRIS mutagenicity studies

Measured: mutagenic call

Cc1[nH]c(=O)c(C#N)cc1-c1ccncc1
inactive: Test System: AMES SALMONELLA TYPHIMURIUM, Strain/Indicator: TA97, Metabolic Activation: NONE inactive; negative | Test System: AMES SALMONELLA TYPHIMURIUM, Strain/Indicator: TA97, Metabolic Activation: S-9 inactive; negative | Test System: AMES SALMONELLA TYPHIMURIUM, Strain/Indicator: TA98, Metabolic Activation: NONE inactive; negative | Test System: AMES SALMONELLA TYPHIMURIUM, Strain/Indicator: TA98, Metabolic Activation: NONE, Method: PREINCUBATION inactive; negative | Test System: AMES SALMONELLA TYPHIMURIUM, Strain/Indicator: TA98, Metabolic Activation: RAT, LIVER, S-9, PHENOBARBITAL AND 5,6-BENZOFLAVONE, Method: PREINCUBATION inactive; negative | Test System: AMES SALMONELLA TYPHIMURIUM, Strain/Indicator: TA98, Metabolic Activation: S-9 inactive; negative | Test System: AMES SALMONELLA TYPHIMURIUM, Strain/Indicator: TA100, Metabolic Activation: NONE, Method: PREINCUBATION inactive; negative | Test System: AMES SALMONELLA TYPHIMURIUM, Strain/Indicator: TA100, Metabolic Activation: RAT, LIVER, S-9, PHENOBARBITAL AND 5,6-BENZOFLAVONE, Method: PREINCUBATION inactive; negative | Test System: AMES SALMONELLA TYPHIMURIUM, Strain/Indicator: TA100, Metabolic Activation: S-9 inactive; negative | Test System: AMES SALMONELLA TYPHIMURIUM, Strain/Indicator: TA102, Metabolic Activation: NONE inactive; negative | Test System: AMES SALMONELLA TYPHIMURIUM, Strain/Indicator: TA102, Metabolic Activation: S-9 inactive; negative | Test System: AMES SALMONELLA TYPHIMURIUM, Strain/Indicator: TA1535, Metabolic Activation: NONE, Method: PREINCUBATION inactive; negative | Test System: AMES SALMONELLA TYPHIMURIUM, Strain/Indicator: TA1535, Metabolic Activation: RAT, LIVER, S-9, PHENOBARBITAL AND 5,6-BENZOFLAVONE, Method: PREINCUBATION inactive; negative | Test System: AMES SALMONELLA TYPHIMURIUM, Strain/Indicator: TA1537, Metabolic Activation: NONE, Method: PREINCUBATION inactive; negative | Test System: AMES SALMONELLA TYPHIMURIUM, Strain/Indicator: TA1537, Metabolic Activation: RAT, LIVER, S-9, PHENOBARBITAL AND 5,6-BENZOFLAVONE, Method: PREINCUBATION inactive; negative | Test System: E. COLI, Strain/Indicator: WP2 UVRA, Metabolic Activation: NONE, Method: PREINCUBATION inactive; negative | Test System: E. COLI, Strain/Indicator: WP2 UVRA, Metabolic Activation: RAT, LIVER, S-9, PHENOBARBITAL AND 5,6-BENZOFLAVONE, Method: PREINCUBATION inactive; negative | Test System: MOUSE LYMPHOMA, Strain/Indicator: L5178Y (TK+/TK-), Metabolic Activation: NONE, Method: SUSPENSION/PLATE inactive; negative | Test System: MOUSE LYMPHOMA, Strain/Indicator: L5178Y (TK+/TK-), Metabolic Activation: RAT, LIVER, S-9, PHENOBARBITAL AND 5,6-BENZOFLAVONE, Method: SUSPENSION/PLATE inactive; negative
